# Measured values reported in patent US20050277645A1, “Sleep inducing compounds and methods relating thereto” (Neurocrine Biosciences, Inc., priority 2004, published 2005).
# Target: T1, human H1 receptor (Homo sapiens, UniProt P35367)
# T1 construct: expressed in transfected cells; host or cells: CHO cells (crude membranes)
# Experiment: Human histamine H1 receptor binding assay
# Details: competition with 1.5 nM [pyridinyl-5-3H]Pyrilamine, crude membranes of CHO cells transfected with human H1 receptor; Ki from IC50 by Cheng-Prusoff
# Procedure: Compounds of the present invention may be evaluated for binding to the histamine H1 receptor by a standard binding assay. […] Non-specific binding is determined in the presence of excess (1 μM) doxepin. Bound and free ligand are separated by rapid vacuum filtration using a Packard 96-well cell harvester onto UniFilter GF/C filter plates (PerkinElmer) that has been pretreated with 1% polyethyleneimine. The filter plates are then washed with 600 μl phosphate buffered saline containing 0.01% (v/v) Triton-X100. Bound radioligand is determined by scintillation counting using a TopCount-NXT (Packard). Binding data is analyzed by nonlinear, least-squares curve fitting algorithms using GraphPad Prism (GraphPad Software, Inc. San Diego, Calif.) or ActivityBase (IDBS, Guildford, Surrey, UK).
# T1 sequence (P35367 whole entry): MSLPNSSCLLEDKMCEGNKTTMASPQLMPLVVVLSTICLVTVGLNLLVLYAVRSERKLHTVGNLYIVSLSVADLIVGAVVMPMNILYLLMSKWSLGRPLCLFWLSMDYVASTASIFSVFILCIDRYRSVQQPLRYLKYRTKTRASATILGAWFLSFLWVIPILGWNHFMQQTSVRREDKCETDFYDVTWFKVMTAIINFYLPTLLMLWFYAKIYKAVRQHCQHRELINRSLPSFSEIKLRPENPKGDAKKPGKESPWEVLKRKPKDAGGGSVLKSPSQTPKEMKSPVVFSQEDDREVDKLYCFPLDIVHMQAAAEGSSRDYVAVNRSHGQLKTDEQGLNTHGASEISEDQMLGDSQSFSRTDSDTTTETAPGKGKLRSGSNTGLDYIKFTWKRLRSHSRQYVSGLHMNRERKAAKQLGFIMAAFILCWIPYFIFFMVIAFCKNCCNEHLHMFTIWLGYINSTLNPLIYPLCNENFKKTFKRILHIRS
row,Ki [nM],Structure (SMILES)
1,≤ 250,"CC(C1=C(CCN(C)C)Cc2cc(Cl)ccc21)c1nccs1 (single isomer, unassigned) [23-2, {2-[6-chloro-3-(1-thiazol-2-yl-ethyl)-1H-inden-2-yl]-ethyl}-dimethyl-amine]"
2,≤ 250,"COc1ccc2c(c1)C(C(C)c1nccs1)=C(CCN(C)C)C2 (single isomer, unassigned) [25-2, {2-[5-methoxy-3-(1-thiazol-2-yl-ethyl)-1H-inden-2-yl]-ethyl}-dimethyl-amine]"
3,≤ 250,"CC(C1=C(CCN(C)C)Cc2ccccc21)c1ncc(-c2ccccc2)s1 (stereo not shown) [10-1, dimethyl-(2-{3-[1-(5-phenyl-thiazol-2-yl)-ethyl]-1H-inden-2-yl}-ethyl)-amine]"
4,≤ 250,"Cc1cnc(C(C)C2=C(CCN(C)C)Cc3ccccc32)s1 (stereo not shown) [10-2, dimethyl-(2-{3-[1-(5-methyl-thiazol-2-yl)-ethyl]-1H-inden-2-yl}-ethyl)-amine]"
5,≤ 250,Cc1cnc(C(C)C2=C(CCN(C)C)Cc3ccccc32)o1 (stereo not shown) [11-1]
6,≤ 250,"CC1CN=C(C(C)C2=C(CCN(C)C)Cc3ccccc32)O1 (stereo not shown) [12-1, dimethyl-(2-{3-[1-(5-methyl-4,5-dihydro-oxazol-2-yl)-ethyl]-1H-inden-2-yl}-ethyl)-amine]"
7,≤ 250,"CC(C1=NCCO1)C1=C(CCN(C)C)Cc2ccccc21 (stereo not shown) [13-1, (2-{3-[1-(4,5-dihydro-oxazol-2-yl)-ethyl]-1H-inden-2-yl}-ethyl)-dimethyl-amine]"
8,≤ 250,"Cc1nnc(C(C)C2=C(CCN(C)C)Cc3ccccc32)s1 (stereo not shown) [14-1, dimethyl-(2-{3-[1-(5-methyl-[1,3,4]thiadiazol-2-yl)-ethyl]-1H-inden-2-yl}-ethyl)-amine]"
9,≤ 250,CC(C1=C(CCN(C)C)Cc2ccccc21)c1nnc(-c2ccccc2)s1 (stereo not shown) [14-2]
10,≤ 250,"CNCCC1=C([C@@H](C)c2cnccn2)c2ccccc2C1 [15-2, methyl-{2-[3-((R)-1-pyrazin-2-yl-ethyl)-1H-inden-2-yl]-ethyl}-amine]"
11,≤ 250,"CNCCC1=C(Cc2cnccn2)c2ccccc2C1 [15-4, methyl-[2-(3-pyrazin-2-ylmethyl-1H-inden-2-yl)-ethyl]-amine]"
12,≤ 250,CNCCC1=C(C(C)c2cnccn2)c2ccc(C)cc2C1 (stereo not shown) [15-5]
13,≤ 250,CNCCC1=C(C(C)c2nc(C)cs2)c2ccccc2C1 (stereo not shown) [15-6]
14,≤ 250,"CCN(C)CCC1=C(Cc2cnccn2)c2ccccc2C1 [16-1, ethyl-methyl-[2-(3-pyrazin-2-ylmethyl-1H-inden-2-yl)-ethyl]-amine]"
15,≤ 250,CCCN(C)CCC1=C(Cc2cnccn2)c2ccccc2C1 [16-2]
16,≤ 250,CN(CCO)CCC1=C(Cc2cnccn2)c2ccccc2C1 [16-3]
17,≤ 250,"CC(CC1=C(Cc2cnccn2)c2ccccc2C1)N(C)C (stereo not shown) [18-1, dimethyl-[1-methyl-2-(3-pyrazin-2-ylmethyl-1H-inden-2-yl)-ethyl]-amine]"

row,Ki [nM],Structure (SMILES)
1,≤ 250,CC(CC1=C(Cc2cnccn2)c2ccccc2C1)N1CCCC1 (stereo not shown) [18-4]
2,≤ 250,CC(CC1=C(Cc2cccnn2)c2ccccc2C1)N1CCCC1 (stereo not shown) [18-5]
3,≤ 250,"Fc1ccc2c(c1)CC(CCN1CCCC1)=C2Cc1cccnn1 [19-1, 3-[5-fluoro-2-(2-pyrrolidin-1-yl-ethyl)-3H-inden-1-ylmethyl]-pyridazine]"
4,≤ 250,Fc1ccc2c(c1)CC(CCN1CCOCC1)=C2Cc1cccnn1 [19-2]
5,≤ 250,O[C@@H]1CCN(CCC2=C(Cc3cccnn3)c3ccc(F)cc3C2)C1 [19-3]
6,≤ 250,O[C@H]1CCN(CCC2=C(Cc3cccnn3)c3ccc(F)cc3C2)C1 [19-4]
7,≤ 250,"Fc1ccc2c(c1)CC(CCN1CCC1)=C2Cc1cccnn1 [20-1, 3-[2-(2-azetidin-1-yl-ethyl)-5-fluoro-3H-inden-1-ylmethyl]-pyridazine]"
8,≤ 250,"COc1ccc2c(c1)CC(CCN1CCC1)=C2C(C)c1cnccn1 (stereo not shown) [21-1, 2-{1-[2-(2-azetidin-1-yl-ethyl)-5-methoxy-3H-inden-1-yl]-ethyl}-pyrazine]"
9,≤ 250,COc1ccc2c(c1)CC(CCN1CCC1)=C2[C@@H](C)c1cnccn1 [21-2]
10,≤ 250,COc1ccc2c(c1)CC(CCN1CCCC1)=C2Cc1cnccn1 [21-5]
11,≤ 250,COc1ccc2c(c1)CC(CCN1CCCC1)=C2Cc1cccnn1 [21-6]
12,≤ 250,c1ccc2c(c1)CC(CCN1CCCC1)=C2Cc1cnccn1 [21-7]
13,≤ 250,c1cnnc(CC2=C(CCN3CCCC3)Cc3ccccc32)c1 [21-8]
14,≤ 250,COc1ccc2c(c1)CC(CCN1CCOCC1)=C2Cc1cnccn1 [21-9]
15,≤ 250,c1ccc2c(c1)CC(CCN1CCC1)=C2Cc1cnccn1 [21-10]
16,≤ 250,Cc1csc([C@H](C)C2=C(CCN(C)C)Cc3cc(Cl)ccc32)n1 [22-5]
17,≤ 250,"CC(C#N)C1=C(CCN(C)C)Cc2cc(Cl)ccc21 (stereo not shown) [23-1, 2-[5-chloro-2-(2-dimethylamino-ethyl)-3H-inden-1-yl]-propionitrile]"

# The next lines start with the compound.
row,Structure (SMILES),Ki [nM]
1,CC(C1=C(CCN(C)C)Cc2ccccc21)c1ccncn1 (stereo not shown) [4-2],≤ 250
2,CN(C)CCC1=C(C(C)(C)c2cnccn2)c2ccccc2C1 [4-12],≤ 250
3,CCOc1nccnc1CC1=C(CCN(C)C)Cc2ccccc21 [4-16],≤ 250
4,CCCOc1cncc(CC2=C(CCN(C)C)Cc3ccccc32)n1 [4-17],≤ 250
5,COc1nccnc1C(C)C1=C(CCN(C)C)Cc2cc(Cl)ccc21 (stereo not shown) [4-20],≤ 250
6,COc1nccnc1[C@@H](C)C1=C(CCN(C)C)Cc2cc(Cl)ccc21 [4-22],≤ 250
7,COc1nccnc1[C@H](C)C1=C(CCN(C)C)Cc2cc(Cl)ccc21 [4-23],≤ 250
8,Cc1ccc2c(c1)CC(CCN(C)C)=C2Cc1cccnn1 [4-25],≤ 250
9,CCOc1nccnc1C(C)C1=C(CCN(C)C)Cc2cc(F)ccc21 (stereo not shown) [4-38],≤ 250
10,CCC(C1=C(CCN(C)C)Cc2cc(F)ccc21)c1nccnc1OC (stereo not shown) [4-39],≤ 250
11,COc1ccc2c(c1)CC(CCN(C)C)=C2Cc1cccnn1 [4-42],≤ 250
12,"CCOCC(C)C1=C(CCN(C)C)Cc2ccccc21 (stereo not shown) [6-1, {2-[3-(2-ethoxy-1-methyl-ethyl)-1H-inden-2-yl]-ethyl}-dimethyl-amine]",≤ 250
13,COCC(C)C1=C(CCN(C)C)Cc2ccccc21 (stereo not shown) [6-2],≤ 250
14,"CC(C(=O)OC(C)(C)C)C1=C(CCN(C)C)Cc2ccccc21 (stereo not shown) [7-1, 2-[2-(2-dimethylamino-ethyl)-3H-inden-1-yl]-propionic acid tert-butyl ester]",≤ 250
15,COC(=O)C(C)C1=C(CCN(C)C)Cc2ccccc21 (stereo not shown) [7-3],≤ 250
16,"Cc1nnc(C(C)C2=C(CCN(C)C)Cc3ccccc32)o1 (stereo not shown) [8-1, dimethyl-(2-{3-[1-(5-methyl-[1,3,4]oxadiazol-2-yl)-ethyl]-1H-inden-2-yl}-ethyl)-amine]",≤ 250
17,CC(C1=C(CCN(C)C)Cc2ccccc21)c1nnc(-c2ccccc2)o1 (stereo not shown) [8-2],≤ 250
18,"CC(C1=C(CCN(C)C)Cc2ccccc21)c1ncc(-c2ccccc2)o1 (stereo not shown) [9-1, dimethyl-(2-{3-[1-(5-phenyl-oxazol-2-yl)-ethyl]-1H-inden-2-yl}-ethyl)-amine]",≤ 250
